These results are taken from US6872722B2, “Therapies for tissue damage resulting from ischemia” (Pfizer Inc, priority 2001, dated 2005).

Consider `O=c1ccc(S(=O)(=O)c2cccc(Br)c2)n[nH]1` [Example 4I, 6-(3-Bromo-benzenesulfonyl)-2H-pyridazin-3-one], for which the melting point was greater than 220 °C.
